Results on 21 compounds are retold here after patent US20200216439A1, “HETERO-1,5,6,7-TETRAHYDRO-4H-INDOL-4-ONES” (BAYER PHARMA AKTIENGESELLSCHAFT, priority 2015, published 2020).

The IC50 is the concentration that gives 50% inhibition.

T1 sequence (O43683 704-1085): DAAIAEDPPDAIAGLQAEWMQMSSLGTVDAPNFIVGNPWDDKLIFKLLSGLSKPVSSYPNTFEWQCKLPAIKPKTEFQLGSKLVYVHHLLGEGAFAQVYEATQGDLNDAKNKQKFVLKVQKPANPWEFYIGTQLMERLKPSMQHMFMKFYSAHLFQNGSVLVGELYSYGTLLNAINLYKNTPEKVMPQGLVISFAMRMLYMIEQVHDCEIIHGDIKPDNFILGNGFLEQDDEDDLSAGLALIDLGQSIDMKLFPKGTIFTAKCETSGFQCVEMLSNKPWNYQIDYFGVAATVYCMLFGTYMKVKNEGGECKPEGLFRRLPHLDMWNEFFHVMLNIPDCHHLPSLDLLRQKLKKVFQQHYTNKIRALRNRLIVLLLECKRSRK

The assay has as its target T1, catalytic domain of human Bub1 (amino acids 704-1085) (Homo sapiens, UniProt O43683).
T1 construct: catalytic domain of human Bub1 (amino acids 704-1085); His6 (N); made in house; host or cells: Hi5 insect cells
Kind of assay: Bub1 kinase assay (TR-FRET). Format: biochemical. Particulars: TR-FRET; ATP 10 μM, peptide substrate 1 μM; 60 min at 22° C.; average or median if tested more than once; read-out: Inhibition of Bub1 kinase IC50. The text has this: Bub1-inhibitory activities of compounds described in the present invention were quantified using a time-resolved fluorescence energy transfer (TR-FRET) kinase assay which measures phosphorylation of the synthetic peptide Biotin-Ahx-VLLPKKSFAEPG (C-terminus in amide form), purchased from e.g. Biosyntan (Berlin, Germany) by the (recombinant) catalytic domain of human Bub1 (amino acids 704-1085), expressed in Hi5 insect cells with an N-terminal His6-tag and purified by affinity—(Ni-NTA) and size exclusion chromatography.
In a typical assay 11 different concentrations of each compound (0.1 nM, 0.33 nM, 1.1 nM, 3.8 nM, 13 nM, 44 nM, 0.15 μM, 0.51 μM, 1.7 μM, 5.9 μM and 20 μM) were tested in duplicate within the same microtiter plate. To this end, 100-fold concentrated compound solutions (in DMSO) were previously prepared by serial dilution (1:3.4) of 2 mM stocks in a clear low volume 384-well source microtiter plate (Greiner Bio-One, Frickenhausen, Germany), from which 50 nl of compounds were transferred into a black low volume test microtiter plate from the same supplier. Subsequently, 2 μL of Bub1 (the final concentration of Bub1 was adjusted depending on the activity of the enzyme lot in order to be within the linear dynamic range of the assay: typically ˜200 ng/mL were used) in aqueous assay buffer [50 mM Tris/HCl pH 7.5, 10 mM magnesium chloride (MgCl2), 200 mM potassium chloride (KCl), 1.0 mM dithiothreitol (DTT), 0.1 mM sodium ortho-vanadate, 1% (v/v) glycerol, 0.01% (w/v) bovine serum albumine (BSA), 0.005% (v/v) Trition X-100 (Sigma), 1× Complete EDTA-free protease inhibitor mixture (Roche)] were added to the compounds in the test plate and the mixture was incubated for 15 min at 22° C. to allow pre-equilibration of the putative enzyme-inhibitor complexes before the start of the kinase reaction, which was initiated by the addition of 3 μL 1.67-fold concentrated solution (in assay buffer) of adenosine-tri-phosphate (ATP, 10 μM final concentration) and peptide substrate (1 μM final concentration). The resulting mixture (5 μL final volume) was incubated at 22° C. during 60 min., and the reaction was stopped by the addition of 5 μL of an aqueous EDTA-solution (50 mM EDTA, in 100 mM HEPES pH 7.5 and 0.2% (w/v) bovine serum albumin) which also contained the TR-FRET detection reagents (0.2 μM streptavidin-XL665 [Cisbio Bioassays, Codolet, France] and 1 nM anti-phospho-Serine antibody [Merck Millipore, cat. #35-002] and 0.4 nM LANCE EU-W1024 labeled anti-mouse IgG antibody [Perkin-Elmer, product no. AD0077, alternatively a Terbium-cryptate-labeled anti-mouse IgG antibody from Cisbio Bioassays can be used]). The stopped reaction mixture was further incubated 1 h at 22° C. in order to allow the formation of complexes between peptides and detection reagents. Subsequently, the amount of product was evaluated by measurement of the resonance energy transfer from the Eu-chelate-antibody complex recognizing the Phosphoserine residue to the streptavidin-XL665 bound to the biotin moiety of the peptide. To this end, the fluorescence emissions at 620 nm and 665 nm after excitation at 330-350 nm were measured in a TR-FRET plate reader, e.g. a Rubystar or Pherastar (both from BMG Labtechnologies, Offenburg, Germany) or a Viewlux (Perkin-Elmer) and the ratio of the emissions (665 nm/[…]) was taken as indicator for the amount of phosphorylated substrate. The data were normalised using two sets of control wells for high—(=enzyme reaction without inhibitor=0%=Minimum inhibition) and low—(=all assay components without enzyme=100%=Maximum inhibition) Bub1 activity. IC50 values were calculated by fitting the normalized inhibition data to a 4-parameter logistic equation (Minimum, Maximum, IC50, Hill; Y=Max+(Min−Max)/(1+(X/IC50)Hill)).
(Time-resolved FRET reads energy transfer from a long-lived donor to a nearby acceptor.)
Consider `CC(=O)N1CC(=O)c2c([nH]c(-c3ccnc(C)n3)c2Nc2ccccc2)C1` [Example 26, 6-Acetyl-2-(2-methylpyrimidin-4-yl)-3-(phenylamino)-1,5,6,7-tetrahydro-4H-pyrrolo[2,3-c]pyridin-4-one], for which the IC50 worked out at 97 nM.

`CNC(=O)N1CC(=O)c2c([nH]c(-c3ccnc(NC(C)=O)c3)c2Nc2ccc(F)cc2)C1` [Example 313, 2-[2-(Acetylamino)pyridin-4-yl]-3-[(4-fluorophenyl)amino]-N-methyl-4-oxo-1,4,5,7-tetrahydro-6H-pyrrolo[2,3-c]pyridine-6-carboxamide]: the IC50 is 17 nM.

Consider `CC(C)S(=O)(=O)N1CC(=O)c2c([nH]c(-c3ccncc3)c2Nc2ccccc2)C1` [Example 67, 3-(phenylamino)-6-(propan-2-ylsulfonyl)-2-(pyridin-4-yl)-1,5,6,7-tetrahydro-4H-pyrrolo[2,3-c]pyridin-4-one], for which the half-maximal inhibitory concentration (IC50) was 6 nM.

`CC(C)(C)SC(=O)N1CC(=O)c2c([nH]c(-c3ccncc3OCC(F)F)c2Nc2ccccc2)C1` [Example 304, S-tert-Butyl 3-anilino-2-[3-(2,2-difluoroethoxy)pyridin-4-yl]-4-oxo-1,4,5,7-tetrahydro-6H-pyrrolo[2,3c]pyridine-6-carbothioate]: the IC50 worked out at 233 nM.

For `Nc1cc(-c2[nH]c3c(c2Nc2ccccc2)C(=O)CNC3)ccn1` [Example 21, 2-(2-Aminopyridin-4-yl)-3-(phenylamino)-1,5,6,7-tetrahydro-4H-pyrrolo[2,3-c]pyridin-4-one], the IC50 was 794 nM.

`CC(=O)Nc1cc(-c2[nH]c3c(c2Nc2ccccc2)C(=O)CN(C(C)=O)C3)ccn1` [Example 112, N-{4-[6-Acetyl-4-oxo-3-(phenylamino)-4,5,6,7-tetrahydro-1H-pyrrolo[2,3-c]pyridin-2-yl]pyridin-2-yl}acetamide]: the IC50 is 9 nM.

Consider `O=C1CNCc2[nH]c(-c3ccnc(NC(=O)[C@H]4C[C@H]4F)c3)c(Nc3ccccc3)c21` [Example 138, (1R,2R)—N-[4-(3-Anilino-4-oxo-4,5,6,7-tetrahydro-1H-pyrrolo[2,3-c]pyridin-2-yl)pyridin-2-yl]-2-fluorocyclopropanecarboxamide], for which the IC50 is 224 nM.

Turning to `CC(C)(C)SC(=O)N1CC(=O)c2c([nH]c(-c3ccnc(NC(=O)[C@@H]4C[C@@H]4F)c3)c2Nc2ccccc2)C1` [Example 308, S-tert-Butyl 3-anilino-2-[2-({[(1S,2S)-2-fluorocyclopropyl]carbonyl}amino)pyridin-4-yl]-4-oxo-1,4,5,7-tetrahydro-6H-pyrrolo[2,3-c]pyridine-6-carbothioate], the IC50 was 31 nM.

On to `CC(C)(C)OC(=O)N1CC(=O)c2c([nH]c(-c3ccnc(NC(=O)C4(F)CC4)c3)c2Nc2ccccc2)C1` [Example 131, tert-Butyl 3-anilino-2-{2-([(1-fluorocyclopropyl)carbonyl]amino}pyridin-4-yl)-4-oxo-1,4,5,7-tetrahydro-6H-pyrrolo[2,3-c]pyridine-6-carboxylate], for which the IC50 amounted to 23 nM.

For the compound `COc1cnccc1-c1[nH]c2c(c1Nc1ccccc1)C(=O)CN(S(C)(=O)=O)C2` [Example 107, 2-(3-Methoxypyridin-4-yl)-6(methylsulfonyl)-3-(phenylamino)-1,5,6,7-tetrahydro-4H-pyrrolo[2,3-c]pyridin-4-one], the IC50 is 6 nM.

Take `CC(C)(C)SC(=O)N1CC(=O)c2c([nH]c(-c3ccnc(NC(=O)C4(F)CC4)c3)c2Nc2ccccc2)C1` [Example 307, S-tert-Butyl 3-anilino-2-{2-([(1-fluorocyclopropyl)carbonyl]amino}pyridin-4-yl)-4-oxo-1,4,5,7-tetrahydro-6H-pyrrolo[2,3-c]pyridine-6-carbothioate]: the 50% inhibitory concentration (IC50) is 182 nM.

With `CS(=O)(=O)CCNC(=O)N1CC(=O)c2c([nH]c(-c3ccncc3)c2Nc2ccccc2)C1` [Example 89, N-[2-(Methylsulfonyl)ethyl]-4-oxo-3-(phenylamino)-2-(pyridin-4-yl)-1,4,5,7-tetrahydro-6H-pyrrolo[2,3-c]pyridine-6-carboxamide], the IC50 was 31 nM.

Take `Cc1nccc(-c2[nH]c3c(c2Nc2ccccc2)C(=O)CNC3)n1` [Example 16, 2-(2-Methylpyrimidin-4-yl)-3-(phenylamino)-1,5,6,7-tetrahydro-4H-pyrrolo[2,3-c]pyridin-4-one]: the half-inhibitory concentration (IC50) is 949 nM.

On to `CC(C)OC(=O)N1CC(=O)c2c([nH]c(-c3ccnc(NC(=O)C4CC4(F)F)c3)c2Nc2ccccc2)C1` (racemic) [Example 158, Isopropyl 3-anilino-2-[2-({[(1RS)-2,2-difluorocyclopropyl]carbonyl}amino)pyridin-4-yl]-4-oxo-1,4,5,7-tetrahydro-6H-pyrrolo[2,3-c]pyridine-6-carboxylate], for which the IC50 is 8 nM.

Turning to `CC(=O)Nc1cc(-c2[nH]c3c(c2Nc2ccccc2)C(=O)CN(S(=O)(=O)CCC(F)(F)F)C3)ccn1` [Example 182, N-(4-{3-Anilino-4-oxo-6-[(3,3,3-trifluoropropyl)sulfonyl]-4,5,6,7-tetrahydro-1H-pyrrolo[2,3-c]pyridin-2-yl}pyridin-2-yl)acetamide], the IC50 is 4 nM.

On to `COC(=O)N1CC(=O)c2c([nH]c(-c3ccnc(NC(C)=O)c3)c2Nc2ccc(C)cc2)C1` [Example 321, Methyl 2-[2-(acetylamino)pyridin-4-yl]-3-[(4-methylphenyl)amino]-4-oxo-1,4,5,7-tetrahydro-6H-pyrrolo[2,3-c]pyridine-6-carboxylate], for which the IC50 was determined as 113 nM.

On to `CN(C)S(=O)(=O)N1CC(=O)c2c([nH]c(-c3ccncc3OCC(F)F)c2Nc2ccccc2)C1` [Example 281, 3-Anilino-2-[3-(2,2-difluoroethoxy)pyridin-4-yl]-N,N-dimethyl-4-oxo-1,4,5,7-tetrahydro-6H-pyrrolo[2,3-c]pyridine-6-sulfonamide], for which the IC50 amounted to 10 nM.

As to `CC(=O)Nc1cc(-c2[nH]c3c(c2Nc2ccccc2)C(=O)CN(C(=O)OC(C)(C)C)C3)ccn1` [Example 23, tert-Butyl 2-[2-(acetylamino)pyridin-4-yl]4-oxo-3-(phenylamino)-1,4,5,7-tetrahydro-6H-pyrrolo[2,3-c]pyridine-6-carboxylate], the IC50 was found to be 1660 nM.

Consider `CC(=O)Nc1cc(-c2[nH]c3c(c2Nc2ccccc2)C(=O)CN(C(=O)OC(C)C)C3)ccn1` [Example 185, Isopropyl 2-(2-acetamidopyridin-4-yl)-3-anilino-4-oxo-1,4,5,7-tetrahydro-6H-pyrrolo[2,3-c]pyridine-6-carboxylate], for which the IC50 turned out to be 14 nM.

For `CC(=O)Nc1cc(-c2[nH]c3c(c2Nc2ccccc2)C(=O)CN(C(=O)N(C)C(C)C)C3)ccn1` [Example 186, 2-(2-Acetamidopyridin-4-yl)-3-anilino-N-isopropyl-N-methyl-4-oxo-1,4,5,7-tetrahydro-6H-pyrrolo[2,3-c]pyridine-6-carboxamide], the IC50 was determined as 3 nM.

For `CC(=O)Nc1cc(-c2[nH]c3c(c2Nc2ccc(C)cc2)C(=O)CNC3)ccn1` [Example 303, N-(4-{3-[(4-Methylphenyl)amino]4-oxo-4,5,6,7-tetrahydro-1H-pyrrolo[2,3-c]pyridin-2-yl}pyridin-2-yl)acetamide], the IC50 was 1150 nM.
